Columns and labels:
Thromboxane A2 receptor = target: T1, Thromboxane A2 receptor (Homo sapiens, UniProt P21731); assay type: functional, cell-based
T1 sequence (P21731 whole entry): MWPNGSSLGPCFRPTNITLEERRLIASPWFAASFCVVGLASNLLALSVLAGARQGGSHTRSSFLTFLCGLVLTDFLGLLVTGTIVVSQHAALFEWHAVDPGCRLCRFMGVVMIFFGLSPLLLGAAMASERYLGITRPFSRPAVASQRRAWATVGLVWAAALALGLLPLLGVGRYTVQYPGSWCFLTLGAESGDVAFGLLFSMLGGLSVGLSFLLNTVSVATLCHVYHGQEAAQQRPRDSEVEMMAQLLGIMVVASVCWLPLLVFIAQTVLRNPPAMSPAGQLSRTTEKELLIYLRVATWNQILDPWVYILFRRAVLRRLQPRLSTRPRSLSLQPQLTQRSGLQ

D(1A) dopamine receptor = D(1A) dopamine receptor (Homo sapiens, UniProt P21728)
Prothrombin = Prothrombin (Homo sapiens, UniProt P00734); assay type: functional
Histamine H3 receptor = Histamine H3 receptor (Homo sapiens, UniProt Q9Y5N1)
[1] = target: T2, Amine oxidase [flavin-containing] A (Homo sapiens, UniProt P21397); assay type: functional
T2 sequence (P21397 whole entry): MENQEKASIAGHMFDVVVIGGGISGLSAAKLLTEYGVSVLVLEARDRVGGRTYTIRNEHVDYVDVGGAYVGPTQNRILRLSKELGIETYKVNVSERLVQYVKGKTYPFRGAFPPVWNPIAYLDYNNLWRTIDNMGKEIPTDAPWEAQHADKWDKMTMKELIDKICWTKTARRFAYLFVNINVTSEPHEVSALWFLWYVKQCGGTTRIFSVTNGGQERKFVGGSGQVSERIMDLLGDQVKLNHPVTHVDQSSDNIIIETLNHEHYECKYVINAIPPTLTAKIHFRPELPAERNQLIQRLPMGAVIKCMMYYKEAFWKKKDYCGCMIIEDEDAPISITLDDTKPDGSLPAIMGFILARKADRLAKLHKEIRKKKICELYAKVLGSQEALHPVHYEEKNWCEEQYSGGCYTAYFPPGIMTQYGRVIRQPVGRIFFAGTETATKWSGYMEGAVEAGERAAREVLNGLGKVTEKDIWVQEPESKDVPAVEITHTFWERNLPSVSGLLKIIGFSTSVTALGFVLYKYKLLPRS

Mu-type opioid receptor = Mu-type opioid receptor (Homo sapiens, UniProt P35372)
D(3) dopamine receptor = D(3) dopamine receptor (Homo sapiens, UniProt P35462)
Acetylcholinesterase = Acetylcholinesterase (Homo sapiens, UniProt P22303); assay type: functional
[2] = target: Prostaglandin G/H synthase 1 (Homo sapiens, UniProt P23219); assay type: functional
[3] = target: 5-hydroxytryptamine receptor 2B (Homo sapiens, UniProt P41595); assay type: functional, cell-based
[4] = target: T3, 5-hydroxytryptamine receptor 1A (Homo sapiens, UniProt P08908)
T3 sequence (P08908 whole entry): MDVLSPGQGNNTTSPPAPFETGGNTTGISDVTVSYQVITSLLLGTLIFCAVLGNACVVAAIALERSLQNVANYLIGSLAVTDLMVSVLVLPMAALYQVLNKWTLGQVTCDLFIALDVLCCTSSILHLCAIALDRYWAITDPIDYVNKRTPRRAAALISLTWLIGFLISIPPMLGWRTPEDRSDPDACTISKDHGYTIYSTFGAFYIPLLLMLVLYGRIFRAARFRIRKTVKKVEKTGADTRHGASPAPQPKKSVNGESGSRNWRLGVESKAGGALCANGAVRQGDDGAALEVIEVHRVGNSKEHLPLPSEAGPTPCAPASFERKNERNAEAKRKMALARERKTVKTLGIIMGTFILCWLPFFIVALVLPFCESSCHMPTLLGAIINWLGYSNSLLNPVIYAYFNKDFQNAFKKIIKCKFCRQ

[5] = target: Sodium-dependent noradrenaline transporter (Homo sapiens, UniProt P23975)
[6] = target: cGMP-inhibited 3',5'-cyclic phosphodiesterase 3A (Homo sapiens, UniProt Q14432); assay type: functional
[7] = target: 3',5'-cyclic-AMP phosphodiesterase 4A (Homo sapiens, UniProt P27815); assay type: functional
[8] = target: Sodium-dependent dopamine transporter (Homo sapiens, UniProt Q01959)
[9] = target: Voltage-gated inwardly rectifying potassium channel KCNH2 (Homo sapiens, UniProt Q12809); assay type: functional; details: read-out: AC50
[10] = target: T4, Muscarinic acetylcholine receptor M2 (Homo sapiens, UniProt P08172)
T4 sequence (P08172 whole entry): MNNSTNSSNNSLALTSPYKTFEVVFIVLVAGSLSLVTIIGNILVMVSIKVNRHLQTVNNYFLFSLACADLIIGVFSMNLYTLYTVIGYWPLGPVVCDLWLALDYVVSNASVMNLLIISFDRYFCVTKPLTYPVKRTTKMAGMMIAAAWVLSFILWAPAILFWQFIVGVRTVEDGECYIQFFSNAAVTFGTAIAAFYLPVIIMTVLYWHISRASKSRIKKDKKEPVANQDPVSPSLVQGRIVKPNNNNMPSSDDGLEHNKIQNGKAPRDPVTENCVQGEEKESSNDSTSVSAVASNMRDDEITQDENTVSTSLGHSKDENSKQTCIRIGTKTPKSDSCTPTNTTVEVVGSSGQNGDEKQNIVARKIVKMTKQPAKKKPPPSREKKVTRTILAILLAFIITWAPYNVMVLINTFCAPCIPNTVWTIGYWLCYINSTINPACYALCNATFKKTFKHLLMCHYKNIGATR
Also: assay procedure not described here.

Chain of Voltage-gated inwardly rectifying potassium channel KCNH2 (Q12809 whole entry): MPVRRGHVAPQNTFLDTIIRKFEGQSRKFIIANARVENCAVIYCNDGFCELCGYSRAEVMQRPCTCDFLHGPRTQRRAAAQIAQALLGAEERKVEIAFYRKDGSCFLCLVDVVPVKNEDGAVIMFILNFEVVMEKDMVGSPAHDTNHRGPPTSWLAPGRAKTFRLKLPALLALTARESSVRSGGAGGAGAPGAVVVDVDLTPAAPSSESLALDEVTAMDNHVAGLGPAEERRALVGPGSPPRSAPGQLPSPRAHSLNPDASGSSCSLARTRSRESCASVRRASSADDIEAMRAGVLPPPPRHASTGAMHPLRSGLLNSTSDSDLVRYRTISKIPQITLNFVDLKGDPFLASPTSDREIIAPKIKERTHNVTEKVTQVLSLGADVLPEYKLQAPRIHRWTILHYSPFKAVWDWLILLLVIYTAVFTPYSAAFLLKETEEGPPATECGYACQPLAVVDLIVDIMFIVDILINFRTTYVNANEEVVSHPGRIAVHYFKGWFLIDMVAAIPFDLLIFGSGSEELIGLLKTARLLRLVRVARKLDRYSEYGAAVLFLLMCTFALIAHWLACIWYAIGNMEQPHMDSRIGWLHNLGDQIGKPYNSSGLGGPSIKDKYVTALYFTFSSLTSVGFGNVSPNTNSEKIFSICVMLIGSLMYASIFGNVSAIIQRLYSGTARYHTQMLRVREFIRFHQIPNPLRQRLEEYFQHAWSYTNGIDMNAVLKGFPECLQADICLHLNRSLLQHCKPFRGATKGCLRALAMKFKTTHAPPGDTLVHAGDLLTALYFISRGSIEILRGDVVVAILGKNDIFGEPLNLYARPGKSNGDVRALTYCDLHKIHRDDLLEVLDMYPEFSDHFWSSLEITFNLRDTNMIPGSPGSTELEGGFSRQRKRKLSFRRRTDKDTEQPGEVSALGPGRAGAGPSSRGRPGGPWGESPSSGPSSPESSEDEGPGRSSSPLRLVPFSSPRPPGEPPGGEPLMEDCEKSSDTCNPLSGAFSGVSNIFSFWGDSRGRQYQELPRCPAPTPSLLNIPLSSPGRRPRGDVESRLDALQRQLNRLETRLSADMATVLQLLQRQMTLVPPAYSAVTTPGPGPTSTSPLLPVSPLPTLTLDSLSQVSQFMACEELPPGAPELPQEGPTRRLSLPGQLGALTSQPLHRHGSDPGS
Chain of D(1A) dopamine receptor (P21728 whole entry): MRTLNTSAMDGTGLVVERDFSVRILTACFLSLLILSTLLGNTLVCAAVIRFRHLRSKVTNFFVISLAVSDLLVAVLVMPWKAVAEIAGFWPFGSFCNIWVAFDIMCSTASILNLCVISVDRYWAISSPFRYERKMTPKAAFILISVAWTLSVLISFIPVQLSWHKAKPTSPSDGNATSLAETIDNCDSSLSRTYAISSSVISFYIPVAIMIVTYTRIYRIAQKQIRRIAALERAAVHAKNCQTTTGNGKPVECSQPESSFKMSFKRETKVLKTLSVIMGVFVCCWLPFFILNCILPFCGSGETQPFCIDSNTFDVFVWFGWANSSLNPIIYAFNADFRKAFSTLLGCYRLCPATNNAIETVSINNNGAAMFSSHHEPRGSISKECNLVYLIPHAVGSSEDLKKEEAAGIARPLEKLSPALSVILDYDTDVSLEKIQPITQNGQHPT
Chain of cGMP-inhibited 3',5'-cyclic phosphodiesterase 3A (Q14432 whole entry): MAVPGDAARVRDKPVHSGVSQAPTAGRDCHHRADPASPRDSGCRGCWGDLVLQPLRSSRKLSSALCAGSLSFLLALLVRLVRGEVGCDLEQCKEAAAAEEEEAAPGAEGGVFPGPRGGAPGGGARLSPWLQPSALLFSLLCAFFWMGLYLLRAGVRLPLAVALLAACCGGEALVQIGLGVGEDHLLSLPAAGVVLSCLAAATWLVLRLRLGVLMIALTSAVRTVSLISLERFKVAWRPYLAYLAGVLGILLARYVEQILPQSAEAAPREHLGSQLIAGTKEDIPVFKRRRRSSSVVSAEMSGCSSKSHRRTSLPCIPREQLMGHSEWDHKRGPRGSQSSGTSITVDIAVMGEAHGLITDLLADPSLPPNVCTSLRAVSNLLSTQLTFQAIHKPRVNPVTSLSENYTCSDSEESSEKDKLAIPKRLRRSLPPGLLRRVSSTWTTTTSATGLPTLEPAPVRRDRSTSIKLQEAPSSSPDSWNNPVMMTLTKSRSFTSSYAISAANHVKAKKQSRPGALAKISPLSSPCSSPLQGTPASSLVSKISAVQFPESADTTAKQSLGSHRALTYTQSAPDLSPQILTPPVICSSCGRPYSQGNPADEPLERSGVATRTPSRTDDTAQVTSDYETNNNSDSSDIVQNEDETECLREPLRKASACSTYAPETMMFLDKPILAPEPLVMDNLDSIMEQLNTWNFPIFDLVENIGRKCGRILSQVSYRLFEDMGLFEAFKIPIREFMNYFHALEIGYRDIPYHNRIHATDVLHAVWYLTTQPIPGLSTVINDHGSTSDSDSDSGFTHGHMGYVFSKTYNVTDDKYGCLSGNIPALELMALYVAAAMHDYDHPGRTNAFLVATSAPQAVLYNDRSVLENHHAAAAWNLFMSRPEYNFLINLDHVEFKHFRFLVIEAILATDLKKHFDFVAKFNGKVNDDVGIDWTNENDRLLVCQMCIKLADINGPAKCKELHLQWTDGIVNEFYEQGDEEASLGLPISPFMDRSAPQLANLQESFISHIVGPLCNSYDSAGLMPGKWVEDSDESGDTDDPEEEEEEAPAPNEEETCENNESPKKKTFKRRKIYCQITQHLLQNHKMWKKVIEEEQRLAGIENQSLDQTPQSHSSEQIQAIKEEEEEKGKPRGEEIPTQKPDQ
Chain of D(3) dopamine receptor (P35462 whole entry): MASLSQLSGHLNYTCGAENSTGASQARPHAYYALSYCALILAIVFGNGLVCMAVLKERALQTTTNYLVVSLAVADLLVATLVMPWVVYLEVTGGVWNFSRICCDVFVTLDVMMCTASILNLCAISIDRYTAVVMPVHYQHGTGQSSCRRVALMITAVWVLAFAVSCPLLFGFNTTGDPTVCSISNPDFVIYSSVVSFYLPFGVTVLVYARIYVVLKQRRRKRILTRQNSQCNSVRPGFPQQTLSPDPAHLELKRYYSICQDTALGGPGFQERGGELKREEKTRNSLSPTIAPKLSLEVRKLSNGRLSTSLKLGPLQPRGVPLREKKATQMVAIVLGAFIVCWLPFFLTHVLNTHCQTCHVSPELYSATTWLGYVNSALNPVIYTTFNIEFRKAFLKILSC
Chain of Prostaglandin G/H synthase 1 (P23219 whole entry): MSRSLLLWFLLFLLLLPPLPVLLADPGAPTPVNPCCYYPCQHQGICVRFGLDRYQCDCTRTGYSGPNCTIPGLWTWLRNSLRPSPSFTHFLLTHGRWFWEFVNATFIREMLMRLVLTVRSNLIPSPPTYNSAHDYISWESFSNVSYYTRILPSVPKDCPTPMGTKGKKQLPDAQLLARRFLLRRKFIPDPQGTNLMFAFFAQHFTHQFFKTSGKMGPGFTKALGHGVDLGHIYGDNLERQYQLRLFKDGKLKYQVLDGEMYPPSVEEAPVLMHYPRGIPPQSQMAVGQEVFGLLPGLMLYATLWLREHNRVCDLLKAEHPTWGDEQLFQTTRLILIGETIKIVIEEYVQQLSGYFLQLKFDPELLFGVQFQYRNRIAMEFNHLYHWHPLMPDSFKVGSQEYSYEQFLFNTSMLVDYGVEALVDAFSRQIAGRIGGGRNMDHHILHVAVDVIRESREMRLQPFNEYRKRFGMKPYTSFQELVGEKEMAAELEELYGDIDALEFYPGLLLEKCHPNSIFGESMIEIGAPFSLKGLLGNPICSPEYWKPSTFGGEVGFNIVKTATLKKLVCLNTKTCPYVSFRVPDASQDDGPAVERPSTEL
Chain of Sodium-dependent dopamine transporter (Q01959 whole entry): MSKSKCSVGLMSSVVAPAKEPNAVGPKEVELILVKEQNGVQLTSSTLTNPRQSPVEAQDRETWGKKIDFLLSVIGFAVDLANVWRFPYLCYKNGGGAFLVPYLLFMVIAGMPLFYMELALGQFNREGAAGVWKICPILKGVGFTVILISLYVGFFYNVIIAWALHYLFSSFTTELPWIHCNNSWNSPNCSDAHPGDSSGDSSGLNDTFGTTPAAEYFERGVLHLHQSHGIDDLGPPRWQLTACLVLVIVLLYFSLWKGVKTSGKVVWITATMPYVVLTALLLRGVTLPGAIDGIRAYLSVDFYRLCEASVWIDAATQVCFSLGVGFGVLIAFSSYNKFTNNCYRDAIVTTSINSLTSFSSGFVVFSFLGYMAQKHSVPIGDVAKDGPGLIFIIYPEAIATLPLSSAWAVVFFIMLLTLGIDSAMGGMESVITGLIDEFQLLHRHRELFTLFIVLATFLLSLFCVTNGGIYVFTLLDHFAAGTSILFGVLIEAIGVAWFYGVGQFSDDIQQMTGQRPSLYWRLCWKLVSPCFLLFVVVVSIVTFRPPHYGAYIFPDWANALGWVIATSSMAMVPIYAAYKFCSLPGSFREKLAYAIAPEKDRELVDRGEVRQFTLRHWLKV
Chain of Histamine H3 receptor (Q9Y5N1 whole entry): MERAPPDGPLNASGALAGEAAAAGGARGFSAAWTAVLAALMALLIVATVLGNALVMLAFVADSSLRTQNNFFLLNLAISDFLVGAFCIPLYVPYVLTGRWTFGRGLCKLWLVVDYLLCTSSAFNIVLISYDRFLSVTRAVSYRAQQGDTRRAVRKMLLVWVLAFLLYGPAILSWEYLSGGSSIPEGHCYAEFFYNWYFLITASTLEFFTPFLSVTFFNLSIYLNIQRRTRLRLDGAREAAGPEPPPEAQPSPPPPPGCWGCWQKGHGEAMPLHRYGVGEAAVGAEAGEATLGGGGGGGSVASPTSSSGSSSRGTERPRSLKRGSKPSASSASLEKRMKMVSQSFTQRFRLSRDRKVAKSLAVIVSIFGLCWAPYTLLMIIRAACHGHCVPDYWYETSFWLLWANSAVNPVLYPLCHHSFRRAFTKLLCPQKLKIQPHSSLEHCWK

SMILES | AC50 (Thromboxane A2 receptor) | AC50 (D(1A) dopamine receptor) | AC50 (Prothrombin) | AC50 (Histamine H3 receptor) | AC50 [1] | AC50 (Mu-type opioid receptor) | AC50 (D(3) dopamine receptor) | AC50 (Acetylcholinesterase) | AC50 [2] | AC50 [3] | AC50 [4] | AC50 [5] | AC50 [6] | AC50 [7] | AC50 [8] | AC50 [9] | AC50 [10]
CN1CCC[C@@H]1Cc1c[nH]c2ccc(CCS(=O)(=O)c3ccccc3)cc12 | > 30 µM | 27.7 µM | > 30 µM | 5.7 µM | > 30 µM | 8 µM | > 30 µM | > 30 µM | > 30 µM | > 10 µM | 0.0214 µM | 17.8 µM | > 30 µM | > 30 µM | 26.6 µM | – | –
COc1nccnc1NS(=O)(=O)c1ccc(N)cc1 | > 30 µM | > 30 µM | > 30 µM | > 30 µM | > 30 µM | > 30 µM | > 30 µM | > 30 µM | > 30 µM | > 30 µM | > 30 µM | > 30 µM | > 30 µM | > 30 µM | > 30 µM | > 30 µM | > 30 µM
O=C(Nc1cccc2c(=O)cc(-c3nnn[nH]3)oc12)c1ccc(OCCCCc2ccccc2)cc1 | > 30 µM | 10.1 µM | > 30 µM | > 30 µM | > 30 µM | 4.64 µM | 4.45 µM | > 30 µM | > 30 µM | > 30 µM | 4.1 µM | 7.06 µM | > 30 µM | 8.21 µM | 8.24 µM | – | > 30 µM
NC(=O)c1nc(F)c[nH]c1=O | > 30 µM | > 30 µM | > 10 µM | > 30 µM | > 30 µM | > 30 µM | > 30 µM | > 30 µM | > 30 µM | > 30 µM | > 30 µM | > 30 µM | > 30 µM | > 30 µM | > 30 µM | > 30 µM | > 30 µM
CN(C)CCCN1C(=O)c2cc([N+](=O)[O-])ccc2Oc2ccccc21 | > 30 µM | 26 µM | > 30 µM | > 30 µM | > 30 µM | > 30 µM | 15 µM | > 30 µM | > 30 µM | > 30 µM | 4.17 µM | > 30 µM | > 30 µM | > 30 µM | > 30 µM | > 30 µM | 20.6 µM
N[C@@H](CSSC[C@H](N)C(=O)O)C(=O)O [CYSTINE] | > 30 µM | > 30 µM | > 30 µM | > 30 µM | > 30 µM | > 30 µM | > 30 µM | > 30 µM | > 30 µM | > 30 µM | > 30 µM | > 30 µM | > 30 µM | > 30 µM | > 30 µM | – | > 30 µM
